Values quoted from earlier work in PMC4047818 (Biochemistry, 2014).
Read-outs that look alike come from different tables or passages of the source. Blank lines part the entries; values can stand above or below the substance they belong to.

Tests used:
insulin receptor = tested on: insulin receptor; set-up: method as in 24 sources, one per row (each row's own in cited_ref): ref [58] = [58]; PMID 18048361; doi:10.1074/jbc.M709220200; Gauguin L.; Klaproth B.; Sajid W.; Andersen A. S.; McNeil K. A.; Forbes B. E.; De Meyts P. ( 2008 ) Structural basis for the lower affinity of the insulin-like growth factors for the insulin rec ||| ref [59] = [59]; PMID 9148904; doi:10.1074/jbc.272.20.12978; Kristensen C.; Kjeldsen T.; Wiberg F. C.; Schaffer L.; Hach M.; Havelund S.; Bass J.; Steiner D. F.; Andersen A. S. ( 1997 ) Alanine scanning mutagenesis of insulin . J. Biol. Chem. 272 , 1297 ||| ref [33] = [33]; PMID 17316105; doi:10.1089/dia.2006.0035; Becker R. H. A. ( 2007 ) Insulin glulisine complementing basal insulins: A review of structure and activity . Diabetes Technol. Ther. 9 , 109 – 121 . 17316105 10.1089/dia.2006.0035 ||| ref [60],[61] = [60]; PMID 3541911; doi:10.1042/bj2380345; Bajaj M.; Blundell T. L.; Horuk R.; Pitts J. E.; Wood S. P.; Gowan L. K.; Schwabe C.; Wollmer A.; Gliemann J.; Gammeltoft S. ( 1986 ) Coypu Insulin: Primary Structure, Conformation and Biolog || [61]; PMID 11445250; doi:10.1016/s0196-9781(01)00423-5; Conlon J. M. ( 2001 ) Evolution of the insulin molecule: Insights into structure-activity and phylogenetic relationships . Peptides 22 , 1183 – 1193 . 11445250 10.1016/s0196-9781(01)00423-5 ||| ref [66] = [66]; PMID 2268358; doi:10.1016/s0006-291x(05)80882-4; Burke G. T.; Hu S. Q.; Ohta N.; Schwartz G. P.; Zong L.; Katsoyannis P. G. ( 1990 ) Superactive insulins . Biochem. Biophys. Res. Commun. 173 , 982 – 987 . 2268358 10.1016/s0006-291x(05)80882-4 ||| ...; settings: for relative affinity: insulin = 100
[1] = target: insulin receptor (Homo sapiens) (UniProt P06213); experiment: radioligand binding
Sequence of UniProt P06213 (P06213 763-1382): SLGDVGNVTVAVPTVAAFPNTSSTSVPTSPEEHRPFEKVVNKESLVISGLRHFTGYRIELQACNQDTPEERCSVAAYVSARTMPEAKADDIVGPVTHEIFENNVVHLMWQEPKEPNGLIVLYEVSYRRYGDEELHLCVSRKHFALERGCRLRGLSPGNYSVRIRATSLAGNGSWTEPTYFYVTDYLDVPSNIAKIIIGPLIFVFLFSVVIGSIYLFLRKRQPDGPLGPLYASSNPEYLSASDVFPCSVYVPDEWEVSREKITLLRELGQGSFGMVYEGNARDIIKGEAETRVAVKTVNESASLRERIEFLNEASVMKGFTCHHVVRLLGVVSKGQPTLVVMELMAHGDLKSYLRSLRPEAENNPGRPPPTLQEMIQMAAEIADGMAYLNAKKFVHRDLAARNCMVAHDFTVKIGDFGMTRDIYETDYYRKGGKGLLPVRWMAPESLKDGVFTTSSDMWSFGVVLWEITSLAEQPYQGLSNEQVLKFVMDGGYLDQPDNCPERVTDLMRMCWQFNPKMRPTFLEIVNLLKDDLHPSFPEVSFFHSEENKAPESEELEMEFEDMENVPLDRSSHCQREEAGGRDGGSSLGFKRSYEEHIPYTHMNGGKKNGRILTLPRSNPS

Sequence of insulin (P01308 90-110): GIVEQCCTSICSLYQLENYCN

Substance: [AlaB2]winsulin: literature insulin analogue, Ala at B2
relative affinity (insulin receptor; ref (6)): 110%

Substance: [SerB8,desB30]winsulin: literature insulin analogue, Ser at B8, desB30
relative affinity (insulin receptor; ref (18)): 23%
IR affinity relative to HI (insulin receptor; published analogues, ref Table S5 of the Supporting Information): 23%

Kd [1]: 300 pM
Substance: insulin (from UniProt P01308)

Substance: [Cys(B4–B10),desB30]-insulin: literature insulin analogue with an additional B4–B10 disulfide bond, desB30
relative affinity (insulin receptor; ref (8)): 132%
affinity (insulin receptor; relative to HI, ref [31]): 130%

Substance: [ArgB5]winsulin: insulin with naturally occurring ArgB5 mutation
relative affinity (insulin receptor; ref (10)): 40%

Substance: [MetB6]winsulin: literature insulin analogue, Met at B6
relative affinity (insulin receptor; ref (14)): 15%

Substance: [AlaB5]DKPwinsulin: DKP-insulin analogue, Ala at B5
relative affinity (insulin receptor; ref (13)): 129%

Substance: DKPwinsulin: monomeric insulin analogue containing three substitutions in the B-chain (AspB10, LysB28, ProB29)
relative affinity (insulin receptor; ref (15)): 160%

Substance: [AlaB5]-insulin: literature insulin analogue, Ala at B5
relative affinity (insulin receptor; ref (9)): 31%

Substance: [ValB6]winsulin: literature insulin analogue, Val at B6
relative affinity (insulin receptor; ref (14)): 3.3%

Substance: [AspB5]-insulin: literature insulin analogue, Asp at B5
relative affinity (insulin receptor; ref (12)): 0.4%
binding affinity (insulin receptor; relative to HI, ref [66]): 0.4%

Substance: [AlaB1]winsulin: literature insulin analogue, Ala at B1
relative affinity (insulin receptor; ref (6)): 79%

Substance: [AlaB3]-insulin: literature insulin analogue, Ala at B3
relative affinity (insulin receptor; ref (6)): 134%
binding affinity (insulin receptor; relative to HI, ref [59]): 134%

Substance: [PheB6]winsulin: literature insulin analogue, Phe at B6
relative affinity (insulin receptor; ref (14)): 10%

Substance: [SerB3]-insulin: literature insulin analogue, Ser at B3
relative affinity (insulin receptor; ref (7)): 97%
binding affinity (insulin receptor; relative to HI, ref [58]): 97%

Substance: insulin glulisine: [LysB3,GluB29]-insulin analogue
affinity (insulin receptor; relative to wild type, ref [33]): wild-type-like affinity

Substance: [GlyB6]winsulin: literature insulin analogue, Gly at B6
relative affinity (insulin receptor; ref (14)): 0.052%

Substance: [LeuB8,desB30]winsulin: literature insulin analogue, Leu at B8, desB30
relative affinity (insulin receptor; ref (18)): < 0.2%

Substance: [AsnB5]winsulin: literature insulin analogue, Asn at B5
relative affinity (insulin receptor; ref (12)): 46%

Substance: [ThrB8,desB30]winsulin: literature insulin analogue, Thr at B8, desB30
relative affinity (insulin receptor; ref (18)): < 0.2%

Substance: [ProB3]-insulin: literature insulin analogue, Pro at B3
relative affinity (insulin receptor; ref (7)): 54%
binding affinity (insulin receptor; relative to HI, ref [58]): 54%

Substance: [AlaB6]winsulin: literature insulin analogue, Ala at B6
relative affinity (insulin receptor; ref (6, 14)): 1.4%

Substance: [SerB8]DKPwinsulin: DKP-insulin analogue, Ser at B8
relative affinity (insulin receptor; ref (15, 17)): 90%

Substance: [AlaB4]winsulin: literature insulin analogue, Ala at B4
relative affinity (insulin receptor; ref (6)): 54%
